Assay results as given in ChEMBL document CHEMBL3392969, “SAR156497, an exquisitely selective inhibitor of aurora kinases” (J Med Chem, 2015).

How the values were obtained:
[1] = molecular target: Angiopoietin-1 receptor (Homo sapiens, UniProt Q02763)
Description: Inhibition of TIE-2 (unknown origin)

[2] = molecular target: Insulin-like growth factor 1 receptor (Homo sapiens, UniProt P08069)
Description: Inhibition of IGF1R (unknown origin)

[3] = molecular target: Focal adhesion kinase 1 (Homo sapiens, UniProt Q05397)
Description: Inhibition of FAK (unknown origin)

[4] = molecular target: MAP kinase p38 (Homo sapiens, UniProt O15264+Q15759+Q16539+P53778)
Description: Inhibition of p-38 kinase (unknown origin)

[5] = system: HeLa; test: cells; conditions: Homo sapiens
Description: Antiproliferative activity against human HeLa cells assessed as 14C-thymidine incorporation by Micro-Beta radioactivity counting analysis

Angiopoietin-1 receptor, sequence (Q02763 whole entry): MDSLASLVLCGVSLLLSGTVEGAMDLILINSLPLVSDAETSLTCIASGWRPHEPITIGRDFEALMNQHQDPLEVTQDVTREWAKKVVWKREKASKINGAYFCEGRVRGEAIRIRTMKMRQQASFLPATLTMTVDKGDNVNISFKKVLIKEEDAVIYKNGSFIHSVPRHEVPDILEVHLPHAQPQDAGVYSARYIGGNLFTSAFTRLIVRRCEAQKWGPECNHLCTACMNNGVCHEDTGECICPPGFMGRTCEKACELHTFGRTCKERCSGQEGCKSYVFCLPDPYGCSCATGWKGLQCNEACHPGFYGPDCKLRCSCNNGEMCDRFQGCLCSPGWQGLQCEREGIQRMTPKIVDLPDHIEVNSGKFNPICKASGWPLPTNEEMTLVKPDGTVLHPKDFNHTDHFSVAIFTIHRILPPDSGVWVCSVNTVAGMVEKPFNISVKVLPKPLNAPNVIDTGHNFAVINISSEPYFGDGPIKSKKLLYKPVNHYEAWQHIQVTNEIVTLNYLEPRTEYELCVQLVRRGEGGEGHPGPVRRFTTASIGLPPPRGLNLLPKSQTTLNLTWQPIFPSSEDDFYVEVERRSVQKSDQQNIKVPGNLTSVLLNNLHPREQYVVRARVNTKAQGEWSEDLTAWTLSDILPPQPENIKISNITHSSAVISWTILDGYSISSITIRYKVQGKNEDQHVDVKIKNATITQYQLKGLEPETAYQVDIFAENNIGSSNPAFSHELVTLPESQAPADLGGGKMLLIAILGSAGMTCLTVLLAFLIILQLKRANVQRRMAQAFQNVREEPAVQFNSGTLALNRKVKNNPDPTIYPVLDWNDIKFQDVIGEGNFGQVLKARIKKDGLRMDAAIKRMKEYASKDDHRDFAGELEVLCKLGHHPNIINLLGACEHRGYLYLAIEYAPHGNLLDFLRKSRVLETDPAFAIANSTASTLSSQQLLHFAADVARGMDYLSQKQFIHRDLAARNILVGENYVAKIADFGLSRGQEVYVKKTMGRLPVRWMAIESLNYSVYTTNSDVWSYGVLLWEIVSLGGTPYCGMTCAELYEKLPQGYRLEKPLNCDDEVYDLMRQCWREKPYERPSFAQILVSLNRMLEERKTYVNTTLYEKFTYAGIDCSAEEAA
Focal adhesion kinase 1, sequence (Q05397 whole entry): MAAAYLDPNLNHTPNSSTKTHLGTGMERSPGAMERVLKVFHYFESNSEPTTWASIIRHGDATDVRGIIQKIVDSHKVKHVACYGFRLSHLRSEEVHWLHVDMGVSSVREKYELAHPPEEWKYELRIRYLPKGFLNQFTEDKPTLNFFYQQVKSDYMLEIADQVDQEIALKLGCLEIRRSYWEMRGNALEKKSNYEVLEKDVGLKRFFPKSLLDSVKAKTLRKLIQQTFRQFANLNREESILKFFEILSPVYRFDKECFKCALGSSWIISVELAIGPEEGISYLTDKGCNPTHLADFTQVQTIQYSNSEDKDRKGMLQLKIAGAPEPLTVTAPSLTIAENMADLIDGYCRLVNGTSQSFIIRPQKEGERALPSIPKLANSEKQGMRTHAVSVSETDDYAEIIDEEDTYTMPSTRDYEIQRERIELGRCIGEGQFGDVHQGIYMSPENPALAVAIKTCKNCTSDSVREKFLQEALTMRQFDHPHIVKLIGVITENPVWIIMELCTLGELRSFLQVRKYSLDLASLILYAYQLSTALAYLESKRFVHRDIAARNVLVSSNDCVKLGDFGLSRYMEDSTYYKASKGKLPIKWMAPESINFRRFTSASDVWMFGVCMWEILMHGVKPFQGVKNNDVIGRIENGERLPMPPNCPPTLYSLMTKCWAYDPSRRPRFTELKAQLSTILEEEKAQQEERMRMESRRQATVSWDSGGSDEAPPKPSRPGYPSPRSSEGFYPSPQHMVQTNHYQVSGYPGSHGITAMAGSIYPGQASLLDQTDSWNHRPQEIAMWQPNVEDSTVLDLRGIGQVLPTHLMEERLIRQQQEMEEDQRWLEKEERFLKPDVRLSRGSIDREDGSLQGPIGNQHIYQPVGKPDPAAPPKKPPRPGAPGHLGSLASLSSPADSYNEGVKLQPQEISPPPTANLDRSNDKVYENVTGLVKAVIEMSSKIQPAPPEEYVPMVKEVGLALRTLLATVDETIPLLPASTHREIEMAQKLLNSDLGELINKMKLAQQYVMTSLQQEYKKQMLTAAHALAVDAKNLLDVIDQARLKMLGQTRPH
Insulin-like growth factor 1 receptor, sequence (P08069 31-736 limits assumed): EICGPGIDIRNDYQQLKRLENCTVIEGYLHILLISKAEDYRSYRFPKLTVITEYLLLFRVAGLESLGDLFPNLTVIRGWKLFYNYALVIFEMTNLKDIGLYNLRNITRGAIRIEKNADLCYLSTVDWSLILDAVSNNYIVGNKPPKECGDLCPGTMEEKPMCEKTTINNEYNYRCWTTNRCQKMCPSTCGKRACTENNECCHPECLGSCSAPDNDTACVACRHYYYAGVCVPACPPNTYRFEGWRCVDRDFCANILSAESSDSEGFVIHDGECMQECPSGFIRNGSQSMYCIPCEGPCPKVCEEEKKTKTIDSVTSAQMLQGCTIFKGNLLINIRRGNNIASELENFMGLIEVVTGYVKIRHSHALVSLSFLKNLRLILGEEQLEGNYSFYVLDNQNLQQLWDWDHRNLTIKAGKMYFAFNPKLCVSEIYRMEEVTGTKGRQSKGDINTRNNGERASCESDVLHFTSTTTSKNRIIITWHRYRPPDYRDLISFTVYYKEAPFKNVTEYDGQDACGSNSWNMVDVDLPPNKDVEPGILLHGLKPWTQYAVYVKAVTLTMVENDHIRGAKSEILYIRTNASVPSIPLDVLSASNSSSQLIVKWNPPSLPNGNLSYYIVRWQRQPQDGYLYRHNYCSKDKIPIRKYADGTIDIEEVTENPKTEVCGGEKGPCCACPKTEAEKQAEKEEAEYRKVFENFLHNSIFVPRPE
Insulin-like growth factor 1 receptor, sequence (P08069 741-1367 limits assumed): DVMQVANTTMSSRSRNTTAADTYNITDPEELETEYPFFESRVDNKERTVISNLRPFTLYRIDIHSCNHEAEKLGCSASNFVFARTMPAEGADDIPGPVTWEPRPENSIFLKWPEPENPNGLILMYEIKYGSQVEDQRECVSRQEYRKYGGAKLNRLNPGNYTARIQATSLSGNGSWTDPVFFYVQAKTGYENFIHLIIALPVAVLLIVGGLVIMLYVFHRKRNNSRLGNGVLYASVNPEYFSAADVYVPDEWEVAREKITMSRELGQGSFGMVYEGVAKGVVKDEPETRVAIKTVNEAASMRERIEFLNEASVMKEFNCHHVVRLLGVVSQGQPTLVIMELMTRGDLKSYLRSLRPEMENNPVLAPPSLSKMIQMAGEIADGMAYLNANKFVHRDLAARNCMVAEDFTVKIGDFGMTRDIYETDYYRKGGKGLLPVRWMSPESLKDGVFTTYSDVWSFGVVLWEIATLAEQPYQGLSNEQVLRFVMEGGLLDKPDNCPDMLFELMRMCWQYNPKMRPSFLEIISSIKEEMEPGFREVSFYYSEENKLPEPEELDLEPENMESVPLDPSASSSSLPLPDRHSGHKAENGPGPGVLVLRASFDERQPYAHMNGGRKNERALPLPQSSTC

- IC50 [1]: > 20 µM
- IC50 [2]: > 20 µM
- IC50 [3]: > 20 µM
- IC50 [4]: > 20 µM
- IC50 [5]: > 10 µM
Structure (SMILES): O=C1CNCC2=C1C(c1ccccc1F)c1c[nH]nc1N2 (racemic)
